The text below walks through data of ChEMBL document CHEMBL4406812, “Synthesis of quinones with highlighted biological applications: A critical update on the strategies towards bioactive compounds with emphasis on lapachones” (Eur J Med Chem, 2019).

For series [1], the system named is Trypanosoma cruzi. The experiment in a line: Trypanocidal activity against Trypanosoma cruzi Y strain bloodstream trypomastigotes isolated from infected Swiss mouse infected with monkey LLC-MK2 cells after 5 days by fluorescence spectrophotometric analysis. It counts as functional, organism-based. The note with it: LLC-MK2, 120 h.
A short description of series [2]: Selectivity index, ratio of CC50 for monkey LLC-MK2 cells to IC50 for Trypanosoma cruzi Y strain bloodstream trypomastigotes. The conditions noted are these: read-out: Ratio IC50. In kind it is toxicity.
Series [3] relates to Trypanosoma cruzi. The experiment in a line: Anti-parasitic activity against amastigote form of Trypanosoma cruzi after 24 hrs. It counts as functional, organism-based.
The next series has as its system HepG2. The experiment in a line: Cytotoxicity against human HepG2 cells assessed as reduction in cell viability after 48 hrs by MTT assay. The note with it: HepG2, 48 h. In kind it is functional, cell-based.
Another series relates to L02. The experiment in a line: Cytotoxicity against human LO2 cells assessed as reduction in cell viability after 48 hrs by MTT assay. In kind it is functional, cell-based. The conditions noted are these: L02, 48 h.
For a further series, the system named is LNCaP. The experiment in a line: Anticancer activity against human LNCAP cells after 72 to 102 hrs by MTT assay. It counts as functional, cell-based.
Another series has as its system PC-3. The experiment in a line: Anticancer activity against human PC3 cells after 72 to 102 hrs by MTT assay. It counts as functional, cell-based.
For series [4], the system named is Trypanosoma cruzi. The experiment in a line: Anti-parasitic activity against epimastigotes form of Trypanosoma cruzi. It counts as functional, organism-based.
Another series has as its system MCF7. The experiment in a line: Anticancer activity against human MCF7 cells. It counts as functional, cell-based.
The subject of the next series is MDA-MB-435. The experiment in a line: Cytotoxicity against human MDA-MB-435 cells assessed as reduction in cell viability after 72 hrs by MTT assay. In kind it is functional, cell-based. The note with it: MDA-MB-435, 72 h.
In series [5] the test system is SF-295. The experiment in a line: Cytotoxicity against human SF295 cells assessed as reduction in cell viability after 72 hrs by MTT assay. In kind it is functional, cell-based. The conditions noted are these: SF-295, 72 h.
Series [6] relates to Hs-578T. The experiment in a line: Cytotoxicity against human Hs578T cells assessed as reduction in cell viability after 72 hrs by MTT assay. It counts as functional, cell-based.
For the next series, the system named is SW-620. The experiment in a line: Cytotoxicity against human SW620 cells assessed as reduction in cell viability after 72 hrs by MTT assay. In kind it is functional, cell-based. The note with it: SW-620, 72 h.
For series [7], the system named is Hs-578T. The experiment in a line: Cytotoxicity against human Hs 578T cells assessed as reduction in cell viability after 72 hrs by MTT assay. In kind it is functional, cell-based.
A further series relates to NCI-H358. The experiment in a line: Cytotoxicity against human NCI-H358 cells assessed as reduction in cell viability after 72 hrs by MTT assay. In kind it is functional, cell-based. The conditions noted are these: NCI-H358, 72 h.
Series [8] has as its system HL-60. The experiment in a line: Cytotoxicity against human HL60 cells assessed as reduction in cell viability after 72 hrs by MTT assay. In kind it is functional, cell-based. The note with it: HL-60, 72 h.
A further series concerns HCT-8. The experiment in a line: Cytotoxicity against human HCT8 cells assessed as reduction in cell viability after 72 hrs by MTT assay. In kind it is functional, cell-based. The conditions noted are these: HCT-8, 72 h.
The subject of series [9] is Trypanosoma cruzi. The experiment in a line: Anti-parasitic activity against trypomastigotes form of Trypanosoma cruzi after 24 hrs. In kind it is functional, organism-based.
Series [10] concerns HL-60. The experiment in a line: Anticancer activity against human HL60 cells by MTT assay. In kind it is functional, cell-based.
Another series has as its system HCT-116. The experiment in a line: Anticancer activity against human HCT116 cells by MTT assay. In kind it is functional, cell-based.
The subject of series [11] is SF-295. The experiment in a line: Anticancer activity against human SF295 cells by MTT assay. In kind it is functional, cell-based.
The subject of the next series is OVCAR-8. The experiment in a line: Anticancer activity against human OVCAR8 cells by MTT assay. It counts as functional, cell-based.
The test system of series [12] is Trypanosoma cruzi. The experiment in a line: Potency index, ratio of beta-lapachone IC50 to compound IC50 for Trypanosoma cruzi after 24 hrs. It counts as functional, organism-based.
The subject of series [13] is Trypanosoma cruzi. The experiment in a line: Trypanocidal activity against Trypanosoma cruzi Y strain bloodstream trypomastigotes after 24 hrs. It counts as functional, organism-based.
Series [14] concerns Mycobacterium tuberculosis. The experiment in a line: Antimycobacterial activity against Mycobacterium tuberculosis H37Rv. In kind it is functional.

Values after ≈ are worked out from the molar mass of the structure shown.

`CCCCCCCCCCC1CC2=C(O1)c1ccccc1C(=O)C2=O` (stereo unspecified) displayed an IC50 with Trypanosoma cruzi [1] of 46800 nM. Also, the selectivity ratio in series [2] is 36.3.

Turning to `CC1(C)Cc2c(c3ccccc3c3nc4c5cccnc5c5ncccc5c4nc23)O1`, in the series with Trypanosoma cruzi [3], the IC50 stood at 23000 nM.

`O=C1C(=O)c2ccccc2C2=C1C1(C(=O)Nc3cc(Br)ccc31)N1NN=NC1=N2` (stereo unspecified): the IC50 in the series with HepG2 and in the series on L02 was 2900 to 36300 nM each time.

With `Nc1nnn[nH]1`, the IC50 in the series with HepG2 and in the series with L02 was 2900 to 36300 nM in each case.

On to `CC1(C)CCc2c(c3ccccc3c3nc4c5cccnc5c5ncccc5c4nc23)O1`, for which the midpoint of inhibition in the series with Trypanosoma cruzi [3], the IC50, lay at 4900 nM.

With `O=C1C(=O)c2ccccc2C2=C1C1(C(=O)Nc3c(C(F)(F)F)cccc31)N1NN=NC1=N2` (stereo unspecified), the IC50 in the series on HepG2 and with L02 was 2900 to 36300 nM each time.

With `COc1ccc2c(c1)NC(=O)C21C2=C(N=C3N=NNN31)c1ccccc1C(=O)C2=O` (stereo unspecified), the IC50 in the series on HepG2 and in the series with L02 was 2900 to 36300 nM in each case.

As for `O=C1C(=O)c2ccccc2C2=C1C1(C(=O)Nc3cc(Cl)ccc31)N1NN=NC1=N2` (stereo unspecified), the IC50 in the series on HepG2 and with L02 was 2900 to 36300 nM each time.

For the compound `O=C1c2ccccc2C(=O)c2oc(-c3cccc(Cl)c3)nc21`, the IC50 amounted to 30 nM in the series with LNCaP and 80 nM in the series on PC-3.

With `O=C1C(=O)c2ccccc2C2=C1C1(C(=O)Nc3c(Cl)cccc31)N1NN=NC1=N2` (stereo unspecified), the IC50 in the series with HepG2 and with L02 was 2900 to 36300 nM throughout.

`CCC(C)OP(=O)(N/N=C1\C(=O)C2=C(OC(C)(C)CC2)c2ccccc21)OC(C)CC` (stereo unspecified) returned an IC50 in the series on Trypanosoma cruzi [4] of 19000 nM.

In the case of `CC1(C)OC2=C(C(=O)C(=O)c3ccccc32)C1CO` (stereo unspecified), the IC50 in the series with MCF7 stood at 460 nM.

On to `CC1(C)OC2=C(C(=O)C(=O)c3ccccc32)C1n1cc(-c2ccc(Nc3ccccn3)c3nsnc23)nn1` (stereo unspecified), for which the IC50 in the series with MDA-MB-435 was found to be 590 nM; in the series on SF-295 [5] it was 740 nM; in the series with Hs-578T [6], 570 nM; with SW-620 it was 550 nM; in the series on Hs-578T [7] it was 590 nM; with NCI-H358, 700 nM.

For `O=C1C(=O)c2ccccc2C2=C1C1(C(=O)Nc3ccc(Cl)cc31)N1NN=NC1=N2` (stereo unspecified), the IC50 with HepG2 and in the series with L02 was 2900 to 36300 nM in each case.

For `O=C1C(=O)c2c(O)cccc2C2=C1CCC(c1ccccc1)O2` (stereo unspecified), the IC50 in the series with MDA-MB-435, in the series on SF-295 [5], in the series on HL-60 [8] and in the series on HCT-8 was 1300 nM each time.

`CCCCCCCCC1CC2=C(O1)c1ccccc1C(=O)C2=O` (stereo unspecified): 20700 nM corresponded to half-maximal inhibition in the series with Trypanosoma cruzi [1] (IC50). Besides, in series [2], the selectivity ratio was found to be 106.

As for `CC1(C)Oc2c(c3nc4c5cccnc5c5ncccc5c4nc3c3ccccc23)CC1I` (stereo unspecified), the IC50 with Trypanosoma cruzi [3] is 4900 nM.

In the series with Trypanosoma cruzi [9], `Cc1ccc(Sc2cccc3c2C(=O)C=CC3=O)cc1` had an IC50 of 2500 nM.

As for `O=C1C(=O)c2ccccc2C2=C1C1(C(=O)N(c3ccccc3)c3ccccc31)N1NN=NC1=N2` (stereo unspecified), the IC50 in the series with HepG2 and with L02 was 2900 to 36300 nM throughout.

`CC1(C)O[C@H]2O[C@H](COC3C4=C(OC3(C)C)c3ccccc3C(=O)C4=O)[C@@H](OCc3ccccc3)[C@H]2O1` (stereo partly specified): the IC50 with HL-60 [10] stood at 160 nM; in the series on HCT-116, 510 nM; in the series on SF-295 [11], 340 nM; in the series on OVCAR-8, 890 nM.

For `CC1(C)CCc2c(c3ccccc3c3nc4cc(Nc5ccccc5)/c(=N/c5ccccc5)cc-4n(-c4ccccc4)c23)O1`, the “Ratio IC50” value in the series on Trypanosoma cruzi [12] is reported as 61.3.

`O=C(Cn1ccnc1[N+](=O)[O-])NCc1ccccc1` [BENZNIDAZOLE]: the values for the IC50 with Trypanosoma cruzi [1], with Trypanosoma cruzi [3] and in the series with Trypanosoma cruzi [13] were 19900 nM, 3300 nM and 9680 nM, respectively. In series [2], the selectivity ratio came out at 16.8.

With `COc1cccc2c1C(=O)c1c(O)c3c(c(O)c1C2=O)C[C@@](O)(C(=O)CO)C[C@@H]3O[C@H]1C[C@H](N)[C@H](O)[C@H](C)O1` [DOXORUBICIN], the IC50 with MDA-MB-435 was 30 to 880 nM; in the series with SF-295 [5] it was 30 to 880 nM; with Hs-578T [6], 750 nM; in the series with SW-620, 770 nM; in the series with Hs-578T [7], 830 nM; in the series on NCI-H358, 900 nM. Besides, the IC50 worked out at 360 nM in the series with MCF7 and 30 nM with HCT-8.

For `CC1(C)CCC2=C(O1)c1ccccc1C(=O)C2=O` [LAPACHONE], the MIC in series [14] is 100 µg/mL (≈ 413 µM).
